Converted amounts (≈) assume the structure as drawn.
Tests used:
Assay type in all cases: functional
Staphylococcus aureus [1] = assay: Antibacterial activity against methicillin resistant Staphylococcus aureus clinical isolate assessed as inhibition of bacterial growth incubated for 24 hrs
Staphylococcus aureus [2] = assay: Antibacterial activity against Staphylococcus aureus clinical isolate assessed as inhibition of bacterial growth incubated for 24 hrs
Staphylococcus aureus [3] = assay: Antibacterial activity against Staphylococcus aureus ATCC 25923 assessed as inhibition of bacterial growth incubated for 24 hrs
Staphylococcus aureus [4] = assay: Antibacterial activity against Staphylococcus aureus ATCC 29213 assessed as inhibition of bacterial growth incubated for 24 hrs
Enterococcus faecalis = assay: Antibacterial activity against Enterococcus faecalis clinical isolate assessed as inhibition of bacterial growth incubated for 24 hrs
Klebsiella pneumoniae = assay: Antibacterial activity against Klebsiella pneumoniae clinical isolate assessed as inhibition of bacterial growth incubated for 24 hrs
Escherichia coli [5] = assay: Antibacterial activity against Escherichia coli clinical isolate assessed as inhibition of bacterial growth incubated for 24 hrs
Escherichia coli [6] = assay: Antibacterial activity against Escherichia coli ATCC 25922 assessed as inhibition of bacterial growth incubated for 24 hrs
Pseudomonas aeruginosa [7] = assay: Antibacterial activity against Pseudomonas aeruginosa clinical isolate assessed as inhibition of bacterial growth incubated for 24 hrs
Pseudomonas aeruginosa [8] = assay: Antibacterial activity against Pseudomonas aeruginosa ATCC 27853 assessed as inhibition of bacterial growth incubated for 24 hrs
Acinetobacter baumannii = assay: Antibacterial activity against Acinetobacter baumannii clinical isolate assessed as inhibition of bacterial growth incubated for 24 hrs

## CCn1cc(C(=O)O)c(=O)c2cc(F)c(CC(=O)O)cc21
Staphylococcus aureus [1]
  MIC: 64 µg/mL (≈ 218 µM)
Staphylococcus aureus [2]
  MIC: 64 µg/mL (≈ 218 µM)
Staphylococcus aureus [3]
  MIC: 16 µg/mL (≈ 54.6 µM)
Staphylococcus aureus [4]
  MIC: 32 µg/mL (≈ 109 µM)
Enterococcus faecalis
  MIC: 0.5 µg/mL (≈ 1.71 µM)
Klebsiella pneumoniae
  MIC: 1 µg/mL (≈ 3.41 µM)
Escherichia coli [5]
  MIC: 8 µg/mL (≈ 27.3 µM)
Escherichia coli [6]
  MIC: 8 µg/mL (≈ 27.3 µM)
Pseudomonas aeruginosa [7]
  MIC: 8 µg/mL (≈ 27.3 µM)
Pseudomonas aeruginosa [8]
  MIC: 2 µg/mL (≈ 6.82 µM)
Acinetobacter baumannii
  MIC: 16 µg/mL (≈ 54.6 µM)

## N#CCc1cc2c(cc1F)c(=O)c(C(=O)O)cn2Cc1cnc(Cl)s1
Staphylococcus aureus [1]
  MIC: 1 µg/mL (≈ 2.65 µM)
Staphylococcus aureus [2]
  MIC: 8 µg/mL (≈ 21.2 µM)
Staphylococcus aureus [3]
  MIC: 8 µg/mL (≈ 21.2 µM)
Staphylococcus aureus [4]
  MIC: 4 µg/mL (≈ 10.6 µM)
Enterococcus faecalis
  MIC: 16 µg/mL (≈ 42.4 µM)
Klebsiella pneumoniae
  MIC: 8 µg/mL (≈ 21.2 µM)
Escherichia coli [5]
  MIC: 8 µg/mL (≈ 21.2 µM)
Escherichia coli [6]
  MIC: 1 µg/mL (≈ 2.65 µM)
Pseudomonas aeruginosa [7]
  MIC: 0.5 µg/mL (≈ 1.32 µM)
Pseudomonas aeruginosa [8]
  MIC: 2 µg/mL (≈ 5.29 µM)
Acinetobacter baumannii
  MIC: 16 µg/mL (≈ 42.4 µM)

## CCCCCCn1cc(C(=O)O)c(=O)c2cc(F)c(CC#N)cc21
Staphylococcus aureus [1]
  MIC: 256 µg/mL (≈ 775 µM)
Staphylococcus aureus [2]
  MIC: 256 µg/mL (≈ 775 µM)
Staphylococcus aureus [3]
  MIC: 0.25 µg/mL (≈ 0.757 µM)
Staphylococcus aureus [4]
  MIC: 256 µg/mL (≈ 775 µM)
Enterococcus faecalis
  MIC: 256 µg/mL (≈ 775 µM)
Klebsiella pneumoniae
  MIC: 8 µg/mL (≈ 24.2 µM)
Escherichia coli [5]
  MIC: 4 µg/mL (≈ 12.1 µM)
Escherichia coli [6]
  MIC: 0.5 µg/mL (≈ 1.51 µM)
Pseudomonas aeruginosa [7]
  MIC: 2 µg/mL (≈ 6.05 µM)
Pseudomonas aeruginosa [8]
  MIC: 256 µg/mL (≈ 775 µM)
Acinetobacter baumannii
  MIC: 256 µg/mL (≈ 775 µM)

## Cn1cc(C(=O)O)c(=O)c2cc(F)c(CC#N)cc21
Staphylococcus aureus [1]
  MIC: 2 µg/mL (≈ 7.69 µM)
Staphylococcus aureus [2]
  MIC: 1 µg/mL (≈ 3.84 µM)
Staphylococcus aureus [3]
  MIC: 1 µg/mL (≈ 3.84 µM)
Staphylococcus aureus [4]
  MIC: 8 µg/mL (≈ 30.7 µM)
Enterococcus faecalis
  MIC: 4 µg/mL (≈ 15.4 µM)
Klebsiella pneumoniae
  MIC: 0.5 µg/mL (≈ 1.92 µM)
Escherichia coli [5]
  MIC: 16 µg/mL (≈ 61.5 µM)
Escherichia coli [6]
  MIC: 1 µg/mL (≈ 3.84 µM)
Pseudomonas aeruginosa [7]
  MIC: 0.5 µg/mL (≈ 1.92 µM)
Pseudomonas aeruginosa [8]
  MIC: 2 µg/mL (≈ 7.69 µM)
Acinetobacter baumannii
  MIC: 4 µg/mL (≈ 15.4 µM)

## N#CCc1cc2c(cc1F)c(=O)c(C(=O)O)cn2Cc1cccc(Cl)c1
Staphylococcus aureus [1]
  MIC: 256 µg/mL (≈ 690 µM)
Staphylococcus aureus [2]
  MIC: 256 µg/mL (≈ 690 µM)
Staphylococcus aureus [3]
  MIC: 0.5 µg/mL (≈ 1.35 µM)
Staphylococcus aureus [4]
  MIC: 0.5 µg/mL (≈ 1.35 µM)
Enterococcus faecalis
  MIC: 256 µg/mL (≈ 690 µM)
Klebsiella pneumoniae
  MIC: 1 µg/mL (≈ 2.7 µM)
Escherichia coli [5]
  MIC: 2 µg/mL (≈ 5.39 µM)
Escherichia coli [6]
  MIC: 0.5 µg/mL (≈ 1.35 µM)
Pseudomonas aeruginosa [7]
  MIC: 0.25 µg/mL (≈ 0.674 µM)
Pseudomonas aeruginosa [8]
  MIC: 0.5 µg/mL (≈ 1.35 µM)
Acinetobacter baumannii
  MIC: 16 µg/mL (≈ 43.2 µM)

## CC(C)=CCn1cc(C(=O)O)c(=O)c2cc(F)c(CC#N)cc21
Staphylococcus aureus [1]
  MIC: 1 µg/mL (≈ 3.18 µM)
Staphylococcus aureus [2]
  MIC: 256 µg/mL (≈ 814 µM)
Staphylococcus aureus [3]
  MIC: 0.25 µg/mL (≈ 0.795 µM)
Staphylococcus aureus [4]
  MIC: 16 µg/mL (≈ 50.9 µM)
Enterococcus faecalis
  MIC: 128 µg/mL (≈ 407 µM)
Klebsiella pneumoniae
  MIC: 0.5 µg/mL (≈ 1.59 µM)
Escherichia coli [5]
  MIC: 256 µg/mL (≈ 814 µM)
Escherichia coli [6]
  MIC: 0.5 µg/mL (≈ 1.59 µM)
Pseudomonas aeruginosa [7]
  MIC: 0.5 µg/mL (≈ 1.59 µM)
Pseudomonas aeruginosa [8]
  MIC: 2 µg/mL (≈ 6.36 µM)
Acinetobacter baumannii
  MIC: 256 µg/mL (≈ 814 µM)

## CCCn1cc(C(=O)O)c(=O)c2cc(F)c(CC#N)cc21
Staphylococcus aureus [1]
  MIC: 1 µg/mL (≈ 3.47 µM)
Staphylococcus aureus [2]
  MIC: 4 µg/mL (≈ 13.9 µM)
Staphylococcus aureus [3]
  MIC: 0.25 µg/mL (≈ 0.867 µM)
Staphylococcus aureus [4]
  MIC: 4 µg/mL (≈ 13.9 µM)
Enterococcus faecalis
  MIC: 32 µg/mL (≈ 111 µM)
Klebsiella pneumoniae
  MIC: 1 µg/mL (≈ 3.47 µM)
Escherichia coli [5]
  MIC: 8 µg/mL (≈ 27.8 µM)
Escherichia coli [6]
  MIC: 2 µg/mL (≈ 6.94 µM)
Pseudomonas aeruginosa [7]
  MIC: 0.5 µg/mL (≈ 1.73 µM)
Pseudomonas aeruginosa [8]
  MIC: 2 µg/mL (≈ 6.94 µM)
Acinetobacter baumannii
  MIC: 32 µg/mL (≈ 111 µM)

## N#CCc1cc2c(cc1F)c(=O)c(C(=O)O)cn2CC1CC1
Staphylococcus aureus [1]
  MIC: 0.5 µg/mL (≈ 1.67 µM)
Staphylococcus aureus [2]
  MIC: 256 µg/mL (≈ 853 µM)
Staphylococcus aureus [3]
  MIC: 0.25 µg/mL (≈ 0.833 µM)
Staphylococcus aureus [4]
  MIC: 1 µg/mL (≈ 3.33 µM)
Enterococcus faecalis
  MIC: 64 µg/mL (≈ 213 µM)
Klebsiella pneumoniae
  MIC: 2 µg/mL (≈ 6.66 µM)
Escherichia coli [5]
  MIC: 1 µg/mL (≈ 3.33 µM)
Escherichia coli [6]
  MIC: 0.25 µg/mL (≈ 0.833 µM)
Pseudomonas aeruginosa [7]
  MIC: 0.25 µg/mL (≈ 0.833 µM)
Pseudomonas aeruginosa [8]
  MIC: 1 µg/mL (≈ 3.33 µM)
Acinetobacter baumannii
  MIC: 0.25 µg/mL (≈ 0.833 µM)

## O=C(O)Cc1cc2c(cc1F)c(=O)c(C(=O)O)cn2Cc1ccccn1
Staphylococcus aureus [1]
  MIC: 128 µg/mL (≈ 359 µM)
Staphylococcus aureus [2]
  MIC: 64 µg/mL (≈ 180 µM)
Staphylococcus aureus [3]
  MIC: 16 µg/mL (≈ 44.9 µM)
Staphylococcus aureus [4]
  MIC: 64 µg/mL (≈ 180 µM)
Enterococcus faecalis
  MIC: 16 µg/mL (≈ 44.9 µM)
Klebsiella pneumoniae
  MIC: 8 µg/mL (≈ 22.5 µM)
Escherichia coli [5]
  MIC: 128 µg/mL (≈ 359 µM)
Escherichia coli [6]
  MIC: 32 µg/mL (≈ 89.8 µM)
Pseudomonas aeruginosa [7]
  MIC: 64 µg/mL (≈ 180 µM)
Pseudomonas aeruginosa [8]
  MIC: 8 µg/mL (≈ 22.5 µM)
Acinetobacter baumannii
  MIC: 64 µg/mL (≈ 180 µM)

## N#CCc1cc2c(cc1F)c(=O)c(C(=O)O)cn2Cc1ccccc1
Staphylococcus aureus [1]
  MIC: 8 µg/mL (≈ 23.8 µM)
Staphylococcus aureus [2]
  MIC: 256 µg/mL (≈ 761 µM)
Staphylococcus aureus [3]
  MIC: 0.25 µg/mL (≈ 0.743 µM)
Staphylococcus aureus [4]
  MIC: 0.5 µg/mL (≈ 1.49 µM)
Enterococcus faecalis
  MIC: 4 µg/mL (≈ 11.9 µM)
Klebsiella pneumoniae
  MIC: 0.5 µg/mL (≈ 1.49 µM)
Escherichia coli [5]
  MIC: 2 µg/mL (≈ 5.95 µM)
Escherichia coli [6]
  MIC: 0.25 µg/mL (≈ 0.743 µM)
Pseudomonas aeruginosa [7]
  MIC: 0.25 µg/mL (≈ 0.743 µM)
Pseudomonas aeruginosa [8]
  MIC: 1 µg/mL (≈ 2.97 µM)
Acinetobacter baumannii
  MIC: 256 µg/mL (≈ 761 µM)

## N#CCc1cc2c(cc1F)c(=O)c(C(=O)O)cn2Cc1ccc([N+](=O)[O-])cc1
Staphylococcus aureus [1]
  MIC: 128 µg/mL (≈ 336 µM)
Staphylococcus aureus [2]
  MIC: 256 µg/mL (≈ 671 µM)
Staphylococcus aureus [3]
  MIC: 32 µg/mL (≈ 83.9 µM)
Staphylococcus aureus [4]
  MIC: 256 µg/mL (≈ 671 µM)
Enterococcus faecalis
  MIC: 8 µg/mL (≈ 21 µM)
Klebsiella pneumoniae
  MIC: 8 µg/mL (≈ 21 µM)
Escherichia coli [5]
  MIC: 256 µg/mL (≈ 671 µM)
Escherichia coli [6]
  MIC: 128 µg/mL (≈ 336 µM)
Pseudomonas aeruginosa [7]
  MIC: 4 µg/mL (≈ 10.5 µM)
Pseudomonas aeruginosa [8]
  MIC: 32 µg/mL (≈ 83.9 µM)
Acinetobacter baumannii
  MIC: 256 µg/mL (≈ 671 µM)
